# The supplement of paper PMC11451515
# Test system: SEM cells
# Assay: cell viability relative to DMSO control; higher = less cytotoxic
# Conditions: 48 h
# In short: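 In 1536-well plates, 5 μl of leukemia cells were seeded per well: 500 cells/well for NOMO1 or SEM and 1000 cells/well for P12-Ichikawa. Each line had first been adapted for at least four passages in each medium. Library compounds in DMSO were pin-dosed at 11 threefold concentrations between 47 μM and 0.79 nM, and CellTiter-Glo One luminescence was read after 48 h at 37°C. Viability is a per-plate percentage relative to DMSO wells, with cell-free wells as background.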
# [1] = HPLM + 10% dialyzed FBS, 0.000781 µM
# [2] = HPLM + 10% dialyzed FBS, 0.00234 µM
# [3] = HPLM + 10% dialyzed FBS, 0.00702 µM
# [4] = HPLM + 10% dialyzed FBS, 0.0211 µM
# [5] = HPLM + 10% dialyzed FBS, 0.0632 µM
# [6] = HPLM + 10% dialyzed FBS, 0.19 µM
# [7] = HPLM + 10% dialyzed FBS, 0.569 µM
# [8] = HPLM + 10% dialyzed FBS, 1.71 µM
# [9] = HPLM + 10% dialyzed FBS, 5.12 µM
# [10] = HPLM + 10% dialyzed FBS, 15.4 µM
# [11] = HPLM + 10% dialyzed FBS, 46.1 µM
# [12] = RPMI 5 mM glucose + 10% FBS, 0.000781 µM
# [13] = RPMI 5 mM glucose + 10% FBS, 0.00234 µM
# [14] = RPMI 5 mM glucose + 10% FBS, 0.00702 µM
# [15] = RPMI 5 mM glucose + 10% FBS, 0.0211 µM
# [16] = RPMI 5 mM glucose + 10% FBS, 0.0632 µM
# [17] = RPMI 5 mM glucose + 10% FBS, 0.19 µM
# [18] = RPMI 5 mM glucose + 10% FBS, 0.569 µM
# [19] = RPMI 5 mM glucose + 10% FBS, 1.71 µM
# [20] = RPMI 5 mM glucose + 10% FBS, 5.12 µM
# [21] = RPMI 5 mM glucose + 10% FBS, 15.4 µM
# [22] = RPMI 5 mM glucose + 10% FBS, 46.1 µM
# [23] = RPMI 5 mM glucose + 10% dialyzed FBS, 0.000781 µM
# [24] = RPMI 5 mM glucose + 10% dialyzed FBS, 0.00234 µM
# [25] = RPMI 5 mM glucose + 10% dialyzed FBS, 0.00702 µM
# [26] = RPMI 5 mM glucose + 10% dialyzed FBS, 0.0211 µM
# [27] = RPMI 5 mM glucose + 10% dialyzed FBS, 0.0632 µM
# [28] = RPMI 5 mM glucose + 10% dialyzed FBS, 0.19 µM
# [29] = RPMI 5 mM glucose + 10% dialyzed FBS, 0.569 µM
# [30] = RPMI 5 mM glucose + 10% dialyzed FBS, 1.71 µM
# [31] = RPMI 5 mM glucose + 10% dialyzed FBS, 5.12 µM
# [32] = RPMI 5 mM glucose + 10% dialyzed FBS, 15.4 µM
# [33] = RPMI 5 mM glucose + 10% dialyzed FBS, 46.1 µM
SMILES,cell viability [1] [%],cell viability [2] [%],cell viability [3] [%],cell viability [4] [%],cell viability [5] [%],cell viability [6] [%],cell viability [7] [%],cell viability [8] [%],cell viability [9] [%],cell viability [10] [%],cell viability [11] [%],cell viability [12] [%],cell viability [13] [%],cell viability [14] [%],cell viability [15] [%],cell viability [16] [%],cell viability [17] [%],cell viability [18] [%],cell viability [19] [%],cell viability [20] [%],cell viability [21] [%],cell viability [22] [%],cell viability [23] [%],cell viability [24] [%],cell viability [25] [%],cell viability [26] [%],cell viability [27] [%],cell viability [28] [%],cell viability [29] [%],cell viability [30] [%],cell viability [31] [%],cell viability [32] [%],cell viability [33] [%]
C/C=C(/C)C(=O)O[C@H]1C(C)=C2[C@H]([C@@H]1OC(=O)CCCCCCC)[C@@](C)(OC(C)=O)C[C@H](OC(=O)CCC)[C@@]1(O)[C@H]2OC(=O)[C@@]1(C)O,95,112,111,101,57,13.1,8.77,7.59,7.07,6.17,6.69,105,112,113,85.7,23.8,10.4,6.8,6.65,7.69,5.62,6.01,107,138,114,82.7,33.8,9.51,7.63,5.08,4.94,3.37,3.69
CC(=O)O[C@H]1C(=O)[C@]2(C)[C@@H](O)C[C@H]3OC[C@@]3(OC(C)=O)C2[C@H](OC(=O)C4=CC=CC=C4)[C@]5(O)C[C@H](OC(=O)[C@H](O)[C@@H](NC(=O)C6=CC=CC=C6)C7=CC=CC=C7)\C(=C1/C5(C)C)C (stereo partly specified),81.5,50,31.7,27.9,27.8,26.4,26.8,24.1,26.8,22.6,25.9,59.1,30.5,22.3,17,16.2,14.2,16.3,15.7,15.6,15.6,13.5,81.3,48.1,35.2,26.3,24.2,23.3,22.8,22.3,22.4,23.9,22.3
COc1ccc(-c2cc3nccn3c(Nc3ncccc3C(N)=O)n2)cc1OC,81.8,92.1,90.4,86.8,85.7,91.4,85.3,61.6,74.4,65.9,58.8,82.7,105,103,100,99,87.2,89.2,63.1,81,60.7,58.1,85.7,91.6,86.6,101,91,76.2,68.5,49.9,59.3,49.1,49.5
COC(=O)Nc1nc2cc(C(=O)c3cccs3)ccc2[nH]1,102,71.5,94.1,48.1,28.1,30.4,24.9,28,25.8,28.9,19.8,95.6,46.7,88,37,15.3,15.1,17.5,14.8,13.9,14.3,14.2,111,69,94.4,51.8,24.7,25.5,22.3,27.2,26,26.6,22.2
CC1=CC=CC=C1N2\C(=N/C3=C(C(=CC=C3)C)C2=O)C[N]4C=NC5=C4N=CN=C5N,97.1,110,115,92.6,83.8,77.7,67.3,72.1,49.6,46.6,37.2,90.8,93,94.3,65.9,83.4,62.1,59.4,54.8,45,34.4,20.8,93.2,112,120,84.3,90,77.5,68.1,64.8,53.5,46.2,33.8
[NH2][Pt]1([NH2])[O]CC(=O)[O]1,78.3,95.6,96.2,92.2,91.2,102,94.4,97,108,96.7,89.7,104,100,110,96.4,108,109,95.5,101,103,88.3,96.3,75.6,84.2,85.7,83.6,88.1,87.7,76.9,94.9,79,91.5,92.3
CC\1=C(C(\N=C(/N1)C2=CC(=NC=C2)Cl)C3=C(F)C=C(Cl)C=C3)/C(=O)NC4=C(F)C=C5[NH]N=CC5=C4 (stereo unspecified),82.1,84.4,100,94.9,93.2,99.6,104,103,81.2,54.5,10.8,102,86.8,97.3,117,94.5,99.1,99.9,85.4,66.3,51.7,6.87,87.7,90.3,103,108,102,122,96.3,101,81.3,55.2,13.5
